Laboratory results from ChEMBL document CHEMBL1153596, “Design, synthesis, and characterization of 6beta-naltrexol analogs, and their selectivity for in vitro opioid receptor subtypes” (Bioorg Med Chem Lett, 2009).

What was measured:
Mu-type opioid receptor = Mu-type opioid receptor (Homo sapiens, UniProt P35372); experiment: Displacement of [3H]DAMGO from human mu opioid receptor expressed in CHO cells by liquid scintillation counting; format: cell-based
[1] = biological target: Delta-type opioid receptor (Homo sapiens, UniProt P41143); experiment: Displacement of [3H]DADLE from human delta opioid receptor expressed in CHO cells by liquid scintillation counting; format: cell-based
Chain of Delta-type opioid receptor (P41143 whole entry): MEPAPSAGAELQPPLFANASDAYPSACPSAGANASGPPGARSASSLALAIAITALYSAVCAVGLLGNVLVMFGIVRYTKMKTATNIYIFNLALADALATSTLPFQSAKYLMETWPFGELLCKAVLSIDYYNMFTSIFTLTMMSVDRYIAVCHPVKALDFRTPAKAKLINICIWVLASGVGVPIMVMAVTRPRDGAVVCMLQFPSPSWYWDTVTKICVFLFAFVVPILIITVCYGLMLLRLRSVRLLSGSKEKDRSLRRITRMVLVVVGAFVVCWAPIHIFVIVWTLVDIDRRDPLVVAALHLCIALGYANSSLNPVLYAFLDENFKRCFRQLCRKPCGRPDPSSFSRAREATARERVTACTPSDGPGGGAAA

[2] = biological target: Kappa-type opioid receptor (Homo sapiens, UniProt P41145); experiment: Displacement of [3H]U69,593 from human kappa opioid receptor expressed in CHO cells by liquid scintillation counting; format: cell-based
Chain of Kappa-type opioid receptor (P41145 whole entry): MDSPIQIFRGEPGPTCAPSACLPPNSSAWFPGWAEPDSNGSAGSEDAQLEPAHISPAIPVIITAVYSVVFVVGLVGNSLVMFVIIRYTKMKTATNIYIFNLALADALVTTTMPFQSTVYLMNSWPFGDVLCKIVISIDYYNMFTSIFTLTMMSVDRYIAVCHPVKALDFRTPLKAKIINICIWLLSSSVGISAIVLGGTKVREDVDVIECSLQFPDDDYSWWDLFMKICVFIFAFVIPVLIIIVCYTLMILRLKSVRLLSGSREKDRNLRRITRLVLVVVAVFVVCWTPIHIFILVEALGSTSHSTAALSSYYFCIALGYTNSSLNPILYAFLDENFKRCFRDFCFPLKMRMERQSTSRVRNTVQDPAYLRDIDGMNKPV

Homo sapiens [3] = species: Homo sapiens; experiment: Selectivity ratio of Ki for human delta opioid receptor to Ki for human mu opioid receptor
Homo sapiens [4] = species: Homo sapiens; experiment: Selectivity ratio of Ki for human kappa opioid receptor to Ki for human mu opioid receptor

Chain of Mu-type opioid receptor (P35372 whole entry): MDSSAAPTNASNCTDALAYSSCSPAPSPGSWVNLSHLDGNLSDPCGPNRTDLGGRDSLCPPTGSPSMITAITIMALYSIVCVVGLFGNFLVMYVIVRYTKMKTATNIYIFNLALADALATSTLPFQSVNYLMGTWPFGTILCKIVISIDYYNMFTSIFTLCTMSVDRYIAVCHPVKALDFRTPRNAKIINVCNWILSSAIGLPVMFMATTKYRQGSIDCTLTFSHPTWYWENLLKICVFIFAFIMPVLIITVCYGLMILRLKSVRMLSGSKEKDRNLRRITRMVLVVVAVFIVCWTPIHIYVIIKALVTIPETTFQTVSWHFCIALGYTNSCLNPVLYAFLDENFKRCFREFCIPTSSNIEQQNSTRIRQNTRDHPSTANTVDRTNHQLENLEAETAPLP

SMILES | Ki (Mu-type opioid receptor) | Ki [1] | Ki [2] | Ratio Ki (Homo sapiens [3]) | Ratio Ki (Homo sapiens [4])
CN(C)C(=O)O[C@@H]1CC[C@@]2(O)[C@H]3Cc4ccc(O)c5c4[C@@]2(CCN3CC2CC2)[C@H]1O5 | 1.85 nM | 334 nM | 28.2 nM | 180 | 15.2
Cc1ccc(S(=O)(=O)O[C@@H]2CC[C@@]3(O)[C@H]4Cc5ccc(O)c6c5[C@@]3(CCN4CC3CC3)[C@H]2O6)cc1 | 0.79 nM | 5.16 nM | 1.66 nM | 6.5 | 2.1
CS(=O)(=O)O[C@@H]1CC[C@@]2(O)[C@H]3Cc4ccc(O)c5c4[C@@]2(CCN3CC2CC2)[C@H]1O5 | 1.11 nM | 93.1 nM | 6.75 nM | 83.8 | 6.1
O=C(O[C@@H]1CC[C@@]2(O)[C@H]3Cc4ccc(O)c5c4[C@@]2(CCN3CC2CC2)[C@H]1O5)N(c1ccccc1)c1ccccc1 | 0.56 nM | 74.6 nM | 14.7 nM | 133 | 26.3
